Source: PMC8113725, “Structure–activity relationship of ipglycermide binding to phosphoglycerate mutases” (The Journal of Biological Chemistry, 2021)
Where two headings read alike, the source gives them in different places. Bridge positions count the residues as written; N and C are the ends. Square brackets hold non-standard residues; d marks the D form. Ends that are not written are not given here. Peptide text beside a SMILES is read from it. * marks the point of attachment. Nva = CCC[C@H](N)C(=O)O; NHOH = ON*

T1: B. malayi iPGM (Brugia malayi, UniProt Q4VWF8)
T1 sequence (Q4VWF8 1-515): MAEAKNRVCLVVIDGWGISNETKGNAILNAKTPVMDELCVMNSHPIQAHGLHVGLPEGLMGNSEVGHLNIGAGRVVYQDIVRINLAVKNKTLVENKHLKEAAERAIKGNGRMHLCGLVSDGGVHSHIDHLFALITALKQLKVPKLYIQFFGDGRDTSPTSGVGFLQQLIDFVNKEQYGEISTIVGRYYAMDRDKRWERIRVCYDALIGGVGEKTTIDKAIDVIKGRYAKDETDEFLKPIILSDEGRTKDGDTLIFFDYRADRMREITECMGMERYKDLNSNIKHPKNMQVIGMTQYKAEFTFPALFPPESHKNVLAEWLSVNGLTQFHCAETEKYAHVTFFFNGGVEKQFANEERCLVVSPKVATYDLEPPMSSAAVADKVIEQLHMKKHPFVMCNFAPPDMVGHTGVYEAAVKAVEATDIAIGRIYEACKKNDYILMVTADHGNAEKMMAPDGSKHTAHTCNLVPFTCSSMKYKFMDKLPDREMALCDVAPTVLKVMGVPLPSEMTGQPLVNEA

T2: Ce-2 (synthetic construct, thioether N-8)
T2 chain: {CH2CO}-[dY]DYPGDYCYLYGTC

T3: Ce-2 Thr13Ser (synthetic construct, thioether N-8)
T3 chain: {CH2CO}-[dY]DYPGDYCYLYGSC

T4: Ce-1 NHOH (synthetic construct, thioether N-8; SMILES …)
T4 chain: {CH2CO}-[dY]DYPGDHCYLYGT-{NHOH}

B1: iPGM (protein)
chain: MFVALGAQIYRQYFGRRGMAMANNSSVANKVCLIVIDGWGVSEDPYGNAILNAQTPVMDKLCSGNWAQIEAHGLHVGLPEGLMGNSEVGHLNIGAGRVIYQDIVRINLAVKNNKFVTNESLVDACDRAKNGNGRLHLAGLVSDGGVHSHIDHMFALVKAIKELGVPELYLHFYGDGRDTSPNSGVGFLEQTLEFLEKTTGYGKLATVVGRYYAMDRDNRWERINVAYEAMIGGVGETSDEAGVVEVVRKRYAADETDEFLKPIILQGEKGRVQNDDTIIFFDYRADRMREISAAMGMDRYKDCNSKLAHPSNLQVYGMTQYKAEFPFKSLFPPASNKNVLAEWLAEQKVSQFHCAETEKYAHVTFFFNGGLEKQFEGEERCLVPSPKVATYDLQPEMSAAGVADKMIEQLEAGTHPFIMCNFAPPDMVGHTGVYEAAVKACEATDIAIGRIYEATQKHGYSLMVTADHGNAEKMKAPDGGKHTAHTCYRVPLTLSHPGFKFVDPADRHPALCDVAPTVLAIMGLPQPAEMTGVSIVQKI
B2: iPGM (protein)
chain: MLVSKKPMVLVILDGYGYREEQQDNAIFSAKTPVMDALWANRPHTLIDASGLEVGLPDRQMGNSEVGHVNLGAGRIVYQDLTRLDVEIKDRAFFANPVLTGAVDKAKNAGKAVHIMGLLSAGGVHSHEDHIMAMVELAAERGAEKIYLHAFLDGRDTPPRSAESSLKKFEEKFAALGKGRVASIIGRYYAMDRDNRWDRVEKAYDLLTLAQGEFQADTAVAGLQAAYARDENDEFVKATVIRAEGQPDAAMEDGDALIFMNFRADRAREITRAFVNADFDGFARKKVVNVDFVMLTEYAADIKTAVAYPPASLVNTFGEWMAKNDKTQLRISETEKYAHVTFFFNGGVEESFKGEDRILINSPKVATYDLQPEMSSAELTEKLVAAIKSGKYDTIICNYPNGDMVGHTGVMEAAVKAVEALDHCVEEVAKAVESVGGQLLITADHGNAEQMRDPATGQAHTAHTNLPVPLIYVGDKNVKAVEGGKLSDIAPTMLSLMGMEIPQEMTGKPLFIVE
B3: iPGM (protein)
chain: T1 sequence (Q4VWF8 1-515)

Experiments:
D. immitis iPGM = D. immitis iPGM (Dirofilaria immitis, UniProt F4ZE01); test: biochemical
C. elegans iPGM [1] = biological target: T5, C. elegans iPGM (Caenorhabditis elegans, UniProt G5EFZ1); test: PGM enzyme assay (enolase–pyruvate kinase coupled, Kinase-Glo Plus end point) and IC50 determination; assay type: biochemical; settings: IC50, metal-ion–coordinating sequence alone; iPGM ortholog not given
E. coli iPGM [2] = biological target: T6, E. coli iPGM (Escherichia coli, UniProt P37689); test: biochemical; settings: […]
C. elegans iPGM [3] = biological target: T5, C. elegans iPGM; test: SPR binding kinetics and saturation binding, biotinylated iPGM on Biotin CAPture chip (Biacore S200)
B. malayi iPGM = biological target: T1, B. malayi iPGM; test: biochemical; assay type: binding; settings: for Kd: Supplementary Table 5, SPR, B.m. iPGM, unit inferred
E. coli iPGM [4] = biological target: T6, E. coli iPGM; test: SPR binding kinetics and saturation binding, biotinylated iPGM on Biotin CAPture chip (Biacore S200); settings: for koff / kon: LoQ = limit of quantitation
Ce-2 = biological target: T2, Ce-2; test: SPR
Ce-2 Thr13Ser = biological target: T3, Ce-2 Thr13Ser; test: SPR
Ce-1 NHOH = biological target: T4, Ce-1 NHOH; test: SPR
[5] = SPR, 25 °C, global fit to 1:1 binding model
[6] = Supplementary Table 5, SPR, E.c. iPGM
[7] = Supplementary Table 5, SPR, E.c. iPGM, unit inferred

| Molecule | IC50 (D. immitis iPGM; Di iPGM Ave IC50 (M)) | IC50 (E. coli iPGM [2]) | Kd (C. elegans iPGM [3]) | koff (C. elegans iPGM [3]) | kon (C. elegans iPGM [3]) | koff (B. malayi iPGM) | kon (B. malayi iPGM) | Kd (B. malayi iPGM) | koff (E. coli iPGM [4]; [6]) | kon (E. coli iPGM [4]; [6]) | Kd (E. coli iPGM [4]; [7]) | further results |
| --- | --- | --- | --- | --- | --- | --- | --- | --- | --- | --- | --- | --- |
| CC(=O)N[C@@H](Cc1ccc(O)cc1)C(=O)NCC(=O)N[C@H](C(=O)N[C@@H](CS)C(N)=O)[C@@H](C)O [Ac-YGTCNH2, Ac-YGTC-CONH2] (Ac-YGTC-NH2) | > 0.001 M | – | – | – | – | – | – | – | – | – | – | IC50 (C. elegans iPGM [1]): > 500 µM |
| CC(C)C[C@H](NC(=O)[C@H](Cc1ccc(O)cc1)NC(=O)[C@@H]1CSCC(=O)N[C@H](Cc2ccc(O)cc2)C(=O)N[C@@H](CC(=O)O)C(=O)N[C@@H](Cc2ccc(O)cc2)C(=O)N2CCC[C@H]2C(=O)NCC(=O)N[C@@H](CC(=O)O)C(=O)N[C@@H](Cc2c[nH]cn2)C(=O)N1)C(=O)N[C@@H](Cc1ccc(O)cc1)C(=O)NCC(=O)N[C@H](C(=O)NO)[C@@H](C)O [Ce-1 NHOH] | 2.92e-09 M | 8.97 µM | 0.109 nM | 0.000171 s⁻¹ | 1.86e+06 M⁻¹ s⁻¹ | 0.00148 s⁻¹ | 203000 M⁻¹ s⁻¹ | 11.5 nM | 0.914 s⁻¹ | 181000 M⁻¹ s⁻¹ | 5.14 µM | koff (C. elegans iPGM [3]; [5]): 7.8e-05 s⁻¹; kon (C. elegans iPGM [3]; [5]): 1.9e+06 M⁻¹ s⁻¹; koff (B. malayi iPGM; [5]): 0.0015 s⁻¹; kon (B. malayi iPGM; [5]): 200000 M⁻¹ s⁻¹; t½ (E. coli iPGM [4]; SPR, dissociation half-life): ≤1 s; Kd (E. coli iPGM [4]; SPR, Req hyperbolic fit where steady state reached, else koff/kon): 5 µM |
| CCC[C@@H]1NC(=O)[C@@H](Cc2ccc(O)cc2)NC(=O)CSC[C@@H](C(=O)N[C@@H](Cc2ccc(O)cc2)C(=O)N[C@@H](CC(C)C)C(=O)N[C@@H](Cc2ccc(O)cc2)C(=O)NCC(=O)N[C@H](C(=O)N[C@@H](CS)C(N)=O)[C@@H](C)O)NC(=O)[C@H](Cc2ccc(O)cc2)NC(=O)[C@H](CC(=O)O)NC(=O)CNC(=O)[C@@H]2CCCN2C(=O)[C@H](Cc2ccc(O)cc2)NC1=O [Ce-2 D2Nva] ({CH2CO}-[dY][Nva]YPGDYCYLYGTC-NH2; thioether N-8) | 1.51e-09 M | 8.73 µM | 0.0257 nM | 4.98e-05 s⁻¹ | 1.94e+06 M⁻¹ s⁻¹ | 0.000143 s⁻¹ | 376000 M⁻¹ s⁻¹ | 0.378 nM | 0.00195 s⁻¹ | 132000 M⁻¹ s⁻¹ | 0.0471 µM | IC50 (D. immitis iPGM; IC50 (M)): 1.46e-09 M |
| CC(C)C[C@H](NC(=O)[C@H](Cc1ccc(O)cc1)NC(=O)[C@@H]1CSCC(=O)N[C@H](Cc2ccc(O)cc2)C(=O)N[C@@H](CC(=O)O)C(=O)N[C@@H](Cc2ccc(O)cc2)C(=O)N[C@@H](C(C)C)C(=O)NCC(=O)N[C@@H](CC(=O)O)C(=O)N[C@@H](Cc2ccc(O)cc2)C(=O)N1)C(=O)N[C@@H](Cc1ccc(O)cc1)C(=O)NCC(=O)N[C@H](C(=O)N[C@@H](CS)C(N)=O)[C@@H](C)O [Ce-2 P4V] | 2.14e-09 M | 8.96 µM | 0.0668 nM | 1.15e-05 s⁻¹ | 173000 M⁻¹ s⁻¹ | 7.52e-05 s⁻¹ | 194000 M⁻¹ s⁻¹ | 0.407 nM | 0.000272 s⁻¹ | 37300 M⁻¹ s⁻¹ | 0.00729 µM | – |
| CC(C)C[C@H](NC(=O)[C@H](Cc1ccc(O)cc1)NC(=O)[C@@H]1CSCC(=O)N[C@H](Cc2ccc(O)cc2)C(=O)N[C@@H](CC(=O)O)C(=O)N[C@@H](Cc2ccc(O)cc2)C(=O)N2CCC[C@H]2C(=O)NCC(=O)N[C@@H](CC(=O)O)C(=O)N[C@@H](Cc2ccc(O)cc2)C(=O)N1)C(=O)N[C@@H](Cc1ccc(O)cc1)C(=O)NCC(=O)NCC(=O)N[C@@H](CS)C(N)=O [Ce-2 T13G] | 1.08e-09 M | 0.0994 µM | 0.0433 nM | 5.77e-05 s⁻¹ | 1.32e+06 M⁻¹ s⁻¹ | 6.11e-05 s⁻¹ | 1.19e+06 M⁻¹ s⁻¹ | 0.0493 nM | 0.00133 s⁻¹ | 299000 M⁻¹ s⁻¹ | 0.0108 µM | IC50 (D. immitis iPGM; IC50 (M)): 9.2e-10 M |
| CC(C)C[C@H](NC(=O)[C@H](Cc1ccc(O)cc1)NC(=O)[C@@H]1CSCC(=O)N[C@H](Cc2ccc(O)cc2)C(=O)N[C@@H](CCC(N)=O)C(=O)N[C@@H](Cc2ccc(O)cc2)C(=O)N2CCC[C@H]2C(=O)NCC(=O)N[C@@H](CC(=O)O)C(=O)N[C@@H](Cc2ccc(O)cc2)C(=O)N1)C(=O)N[C@@H](Cc1ccc(O)cc1)C(N)=O [Ce-2d D2Q] | 3.31e-07 M | 8.04 µM | – | – | – | – | – | – | – | – | – | – |
| CC[C@H](C)[C@@H]1NC(=O)[C@H](Cc2ccc(O)cc2)NC(=O)[C@H](CC(=O)O)NC(=O)[C@@H](Cc2ccc(O)cc2)NC(=O)CSC[C@@H](C(=O)N[C@@H](Cc2ccc(O)cc2)C(=O)N[C@@H](CC(C)C)C(=O)N[C@@H](Cc2ccc(O)cc2)C(N)=O)NC(=O)[C@H](Cc2ccc(O)cc2)NC(=O)[C@H](CC(=O)O)NC(=O)CNC1=O [Ce-2d P4I] | 2.21e-07 M | 21.9 µM | – | – | – | – | – | – | – | – | – | – |
| COc1ccc(C[C@@H]2NC(=O)CSC[C@@H](C(=O)N[C@@H](Cc3ccc(O)cc3)C(=O)N[C@@H](CC(C)C)C(=O)N[C@@H](Cc3ccc(O)cc3)C(N)=O)NC(=O)[C@H](Cc3ccc(O)cc3)NC(=O)[C@H](CC(=O)O)NC(=O)CNC(=O)[C@@H]3CCCN3C(=O)[C@H](Cc3ccc(O)cc3)NC(=O)[C@H](CC(=O)O)NC2=O)cc1 [Ce-2d Y1(4OMe)F] | 1.87e-08 M | 20 µM | – | – | – | – | – | – | – | – | – | – |
| COc1ccc(C[C@H]2NC(=O)CSC[C@@H](C(=O)N[C@@H](Cc3ccc(O)cc3)C(=O)N[C@@H](CC(C)C)C(=O)N[C@@H](Cc3ccc(O)cc3)C(N)=O)NC(=O)[C@H](Cc3ccc(O)cc3)NC(=O)[C@H](CC(=O)O)NC(=O)CNC(=O)[C@@H]3CCCN3C(=O)[C@H](Cc3ccc(O)cc3)NC(=O)[C@H](CC(=O)O)NC2=O)cc1 [Ce-2d Y1D(4OMe)F] | 6.18e-08 M | 18.7 µM | – | – | – | – | – | – | – | – | – | – |
| COc1ccc(C[C@H](NC(=O)[C@H](CC(C)C)NC(=O)[C@H](Cc2ccc(O)cc2)NC(=O)[C@@H]2CSCC(=O)N[C@H](Cc3ccc(O)cc3)C(=O)N[C@@H](CC(=O)O)C(=O)N[C@@H](Cc3ccc(O)cc3)C(=O)N3CCC[C@H]3C(=O)NCC(=O)N[C@@H](CC(=O)O)C(=O)N[C@@H](Cc3ccc(O)cc3)C(=O)N2)C(N)=O)cc1 [Ce-2d Y11(4OMe)F] | 6.05e-08 M | 12.8 µM | – | – | – | – | – | – | – | – | – | – |
| B1 | – | – | – | – | – | – | – | – | – | – | – | Kd (Ce-2): 0.038 nM; Kd (Ce-2 Thr13Ser): 0.029 nM; Kd (Ce-1 NHOH): 0.00011 µM |
| B2 | – | – | – | – | – | – | – | – | – | – | – | Kd (Ce-2): 69 nM; Kd (Ce-2 Thr13Ser): 1.3 nM; Kd (Ce-1 NHOH): 5 µM |
| B3 | – | – | – | – | – | – | – | – | – | – | – | Kd (Ce-2): 0.5 nM; Kd (Ce-2 Thr13Ser): 0.085 nM; Kd (Ce-1 NHOH): 0.012 µM |
